Measured values as given in ChEMBL document CHEMBL4706477, “Synthesis and Biological Evaluation of Calothrixins B and their Deoxygenated Analogues” (J Med Chem, 2018).
Calls of active or inactive are those of the source. No cut-off for these calls is given here.

What was measured:
NCI-H460 [1] = experiment: Induction of apoptosis in human NCI-H460 cells assessed as increase in cleaved PARP protein levels at 3 uM incubated for 48 hrs by Western blot analysis; format: functional, cell-based
HCT-116 [2] = experiment: Induction of DNA damage in human HCT-116 cells assessed as tail length at 0.5 uM incubated for 48 hrs by alkaline Comet assay relative to control; format: functional, cell-based
Calf thymus DNA [3] = experiment: Binding affinity to calf thymus DNA assessed as hyperchromic shift measured at 432 nm at 3*10^-5 mol/L by double beam UV-Vis spectroscopic analysis; format: nucleic-acid assay; settings: Bos taurus
NCI-H460 [4] = experiment: Induction of apoptosis in human NCI-H460 cells assessed as chromatin condensation at 2 uM incubated for 48 hrs by acridine orange/propidium iodide double staining based fluorescence microscopy analysis; format: functional, cell-based
Calf thymus DNA [5] = experiment: Binding affinity to calf thymus DNA assessed as hyperchromic shift measured at 362 nm at 3*10^-5 mol/L by double beam UV-Vis spectroscopic analysis; format: nucleic-acid assay; settings: Bos taurus
HCT-116 [6] = experiment: Induction of apoptosis in human HCT-116 cells assessed as reduction in PARP protein levels at 3 uM incubated for 48 hrs by Western blot analysis; format: functional, cell-based
HCT-116 [7] = experiment: cells; settings: Homo sapiens, HCT-116, 48 h
Description: Antiproliferative activity against human HCT-116 p53-/- cells assessed as reduction in cell viability incubated for 48 hrs by sulphorhodamine B assay

physchem [8] = settings: octanol/water
Description: Octanol/water partition coefficient, log P of the compound

Jurkat = experiment: cells; settings: Homo sapiens, 48 h
Description: Antiproliferative activity against human Jurkat cells assessed as reduction in cell viability incubated for 48 hrs by sulphorhodamine B assay

HCT-116 [9] = experiment: Induction of apoptosis in human HCT-116 cells assessed as nuclear fragmentation at 2 uM incubated for 48 hrs by acridine orange/propidium iodide double staining based fluorescence microscopy analysis; format: functional, cell-based
MCF7 = experiment: cells; settings: Homo sapiens, MCF7, 48 h
Description: Antiproliferative activity against human MCF7 cells assessed as reduction in cell viability incubated for 48 hrs by sulphorhodamine B assay

[10] = target: T1, DNA topoisomerase 2-alpha (Homo sapiens, UniProt P11388); experiment: Inhibition of recombinant human topoisomerase 2 assessed as decrease in relaxation of supercoiled pBlue-Script KS(+) plasmid DNA at < 100 uM incubated for 30 mins by ethidium bromide staining based gel electrophoresis method; settings: dose microM <100, time 30.0 min
SiHa = experiment: cells; settings: Homo sapiens, 48 h
Description: Antiproliferative activity against human SiHa cells assessed as reduction in cell viability incubated for 48 hrs by sulphorhodamine B assay

NCI-H460 [11] = experiment: Induction of apoptosis in human NCI-H460 cells assessed as nuclear fragmentation at 2 uM incubated for 48 hrs by acridine orange/propidium iodide double staining based fluorescence microscopy analysis; format: functional, cell-based
Calf thymus DNA [12] = experiment: Binding affinity to calf thymus DNA assessed as hypsochromic shift absorbance measured at 284 nm at 3*10^-5 mol/L by double beam UV-Vis spectroscopic analysis; format: nucleic-acid assay; settings: Bos taurus
HeLa [13] = experiment: Induction of apoptosis in human HeLa cells assessed as increase in cleaved PARP levels at 1 uM by Western blot analysis; format: functional, cell-based; settings: time 6-24 hrs, TDE = time-dependent effect
NCI-H460 [14] = experiment: cells; settings: Homo sapiens, NCI-H460, 48 h
Description: Antiproliferative activity against human NCI-H460 cells assessed as reduction in cell viability incubated for 48 hrs by sulphorhodamine B assay

HCT-116 [15] = experiment: Induction of cell cycle arrest in human HCT-116 cells assessed as accumulation of cells at G1/S phase at 2 uM incubated for 48 hrs by propidium iodide staining based flow cytometry analysis; format: functional
[16] = target: T1, DNA topoisomerase 2-alpha; experiment: Inhibition of recombinant human topoisomerase 2 assessed as decrease in relaxation of supercoiled pBlue-Script KS(+) plasmid DNA at 200 uM incubated for 30 mins by ethidium bromide staining based gel electrophoresis method
HCT-116 [17] = experiment: Induction of apoptosis in human HCT-116 cells assessed as chromatin condensation at 2 uM incubated for 48 hrs by acridine orange/propidium iodide double staining based fluorescence microscopy analysis; format: functional, cell-based
physchem [18] = settings: octanol/buffer, pH 7.4
Description: Octanol/buffer distribution coefficient, log D of the compound at pH 7.4

HCT-116 [19] = experiment: Induction of cell cycle arrest in human HCT-116 cells assessed as accumulation of cells at sub-G1 phase at 2 uM incubated for 48 hrs by propidium iodide staining based flow cytometry analysis; format: functional
U-251 = experiment: cells; settings: Homo sapiens, U-251, 48 h
Description: Antiproliferative activity against human U-251 cells assessed as reduction in cell viability incubated for 48 hrs by sulphorhodamine B assay

Calf thymus DNA [20] = experiment: Binding affinity to calf thymus DNA assessed as hypochromic effect at 3*10^-5 mol/L by double beam UV-Vis spectroscopic analysis; format: nucleic-acid assay; settings: Bos taurus
HeLa [21] = experiment: cells; settings: Homo sapiens, 48 h
Description: Antiproliferative activity against human HeLa cells assessed as reduction in cell viability incubated for 48 hrs by sulphorhodamine B assay

MDA-MB-231 = experiment: cells; settings: Homo sapiens, MDA-MB-231, 48 h
Description: Antiproliferative activity against human MDA-MB-231 cells assessed as reduction in cell viability incubated for 48 hrs by sulphorhodamine B assay

HCT-116 [22] = experiment: cells; settings: Homo sapiens, HCT-116, 48 h; remark: listed apart in the source
Description: Antiproliferative activity against human HCT-116 cells assessed as reduction in cell viability incubated for 48 hrs by sulphorhodamine B assay

HEK293 = experiment: Antiproliferative activity against human HEK293 cells assessed as reduction in cell viability incubated for 48 hrs by sulphorhodamine B assay; format: functional
HCT-116 [23] = experiment: Anticlonogenic activity against human HCT-116 cells assessed as inhibition of colony formation at 5 uM incubated for 48 hrs followed by compound washout with PBS and measured after 14 days by crystal violet staining based analysis; format: functional, cell-based
A549 = experiment: Antiproliferative activity against human A549 cells assessed as reduction in cell viability incubated for 48 hrs by sulphorhodamine B assay; format: functional
HCT-116 [24] = experiment: Induction of cell cycle arrest in human HCT-116 cells at 5 uM incubated for 20 hrs by propidium iodide staining based flow cytometry analysis; format: functional
Calf thymus DNA [25] = experiment: Binding affinity to calf thymus DNA assessed as DNA intercalation by measuring positive CD band at 20*10^-6 mol/L by CD spectroscopy; format: nucleic-acid assay; settings: Bos taurus
Calf thymus DNA [26] = experiment: Binding affinity to calf thymus DNA assessed as DNA intercalation by measuring positive CD band at 26.6*10^-6 mol/L by CD spectroscopy; format: nucleic-acid assay; settings: Bos taurus
Calf thymus DNA [27] = experiment: Binding affinity to calf thymus DNA assessed as hyperchromic effect measured at 299 nm at 3*10^-5 mol/L by double beam UV-Vis spectroscopic analysis; format: nucleic-acid assay; settings: Bos taurus
HCT-116 [28] = experiment: Induction of cell cycle arrest in human HCT-116 cells assessed as accumulation of cells at G2/M phase at 5 uM incubated for 48 hrs by propidium iodide staining based flow cytometry analysis; format: functional
[29] = target: T1, DNA topoisomerase 2-alpha; experiment: Inhibition of human topoisomerase 2 assessed as inhibition of etoposide-induced DNA cleavage complex formation by measuring linear DNA formation at 30 to 50 uM incubated for 30 mins using pRYG DNA as substrate by agarose gel electrophoresis analysis; settings: dose 30-50 µM
NCI-H460 [30] = experiment: Anticlonogenic activity against human NCI-H460 cells assessed as inhibition of colony formation at 5 uM incubated for 48 hrs followed by compound washout with PBS and measured after 14 days by crystal violet staining based analysis; format: functional, cell-based
[31] = target: T1, DNA topoisomerase 2-alpha; experiment: Inhibition of recombinant human topoisomerase 2 assessed as decrease in relaxation of supercoiled pBlue-Script KS(+) plasmid DNA at 40 uM incubated for 30 mins by ethidium bromide staining based gel electrophoresis method relative to control
[32] = target: T2, DNA topoisomerase 1 (Homo sapiens) (UniProt P11387); experiment: Inhibition of human topoisomerase 1 assessed as induction of negative supercoiled DNA using relaxed pBlue-Script KS(+) plasmid DNA as substrate measured after 15 mins by agarose gel electrophoresis analysis; settings: dose 60-100 µM
T2 sequence (whole entry): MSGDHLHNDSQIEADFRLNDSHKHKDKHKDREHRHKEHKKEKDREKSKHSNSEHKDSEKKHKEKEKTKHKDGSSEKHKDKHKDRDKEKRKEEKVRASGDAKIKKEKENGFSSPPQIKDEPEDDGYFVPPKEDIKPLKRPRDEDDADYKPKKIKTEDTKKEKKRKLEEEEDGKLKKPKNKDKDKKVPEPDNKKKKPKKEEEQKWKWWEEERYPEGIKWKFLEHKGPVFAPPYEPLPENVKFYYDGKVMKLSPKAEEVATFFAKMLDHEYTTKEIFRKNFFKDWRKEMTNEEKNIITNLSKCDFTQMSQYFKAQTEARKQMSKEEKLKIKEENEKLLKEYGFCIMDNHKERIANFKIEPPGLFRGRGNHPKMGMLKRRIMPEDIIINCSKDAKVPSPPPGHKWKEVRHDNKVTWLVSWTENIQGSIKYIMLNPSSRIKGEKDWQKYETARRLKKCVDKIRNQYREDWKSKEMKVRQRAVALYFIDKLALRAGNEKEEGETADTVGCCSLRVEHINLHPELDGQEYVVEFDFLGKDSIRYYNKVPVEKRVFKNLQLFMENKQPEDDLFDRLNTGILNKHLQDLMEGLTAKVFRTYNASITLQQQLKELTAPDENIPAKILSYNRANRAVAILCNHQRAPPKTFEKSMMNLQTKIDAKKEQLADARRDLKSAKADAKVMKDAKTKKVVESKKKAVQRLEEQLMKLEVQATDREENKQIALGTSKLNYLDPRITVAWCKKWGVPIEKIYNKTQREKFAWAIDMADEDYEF

[33] = target: T1, DNA topoisomerase 2-alpha; experiment: Inhibition of recombinant human topoisomerase 2 assessed as decrease in relaxation of supercoiled pBlue-Script KS(+) plasmid DNA incubated for 30 mins by ethidium bromide staining based gel electrophoresis method
HCT-116 [34] = experiment: Induction of DNA damage in human HCT-116 cells assessed as tail length at 5 uM incubated for 48 hrs by alkaline Comet assay relative to control; format: functional, cell-based
NCI-H460 [35] = experiment: Induction of DNA damage in human NCI-H460 cells at 5 uM incubated for 48 hrs by alkaline Comet assay relative to control; format: functional, cell-based

T1 sequence (P11388 whole entry): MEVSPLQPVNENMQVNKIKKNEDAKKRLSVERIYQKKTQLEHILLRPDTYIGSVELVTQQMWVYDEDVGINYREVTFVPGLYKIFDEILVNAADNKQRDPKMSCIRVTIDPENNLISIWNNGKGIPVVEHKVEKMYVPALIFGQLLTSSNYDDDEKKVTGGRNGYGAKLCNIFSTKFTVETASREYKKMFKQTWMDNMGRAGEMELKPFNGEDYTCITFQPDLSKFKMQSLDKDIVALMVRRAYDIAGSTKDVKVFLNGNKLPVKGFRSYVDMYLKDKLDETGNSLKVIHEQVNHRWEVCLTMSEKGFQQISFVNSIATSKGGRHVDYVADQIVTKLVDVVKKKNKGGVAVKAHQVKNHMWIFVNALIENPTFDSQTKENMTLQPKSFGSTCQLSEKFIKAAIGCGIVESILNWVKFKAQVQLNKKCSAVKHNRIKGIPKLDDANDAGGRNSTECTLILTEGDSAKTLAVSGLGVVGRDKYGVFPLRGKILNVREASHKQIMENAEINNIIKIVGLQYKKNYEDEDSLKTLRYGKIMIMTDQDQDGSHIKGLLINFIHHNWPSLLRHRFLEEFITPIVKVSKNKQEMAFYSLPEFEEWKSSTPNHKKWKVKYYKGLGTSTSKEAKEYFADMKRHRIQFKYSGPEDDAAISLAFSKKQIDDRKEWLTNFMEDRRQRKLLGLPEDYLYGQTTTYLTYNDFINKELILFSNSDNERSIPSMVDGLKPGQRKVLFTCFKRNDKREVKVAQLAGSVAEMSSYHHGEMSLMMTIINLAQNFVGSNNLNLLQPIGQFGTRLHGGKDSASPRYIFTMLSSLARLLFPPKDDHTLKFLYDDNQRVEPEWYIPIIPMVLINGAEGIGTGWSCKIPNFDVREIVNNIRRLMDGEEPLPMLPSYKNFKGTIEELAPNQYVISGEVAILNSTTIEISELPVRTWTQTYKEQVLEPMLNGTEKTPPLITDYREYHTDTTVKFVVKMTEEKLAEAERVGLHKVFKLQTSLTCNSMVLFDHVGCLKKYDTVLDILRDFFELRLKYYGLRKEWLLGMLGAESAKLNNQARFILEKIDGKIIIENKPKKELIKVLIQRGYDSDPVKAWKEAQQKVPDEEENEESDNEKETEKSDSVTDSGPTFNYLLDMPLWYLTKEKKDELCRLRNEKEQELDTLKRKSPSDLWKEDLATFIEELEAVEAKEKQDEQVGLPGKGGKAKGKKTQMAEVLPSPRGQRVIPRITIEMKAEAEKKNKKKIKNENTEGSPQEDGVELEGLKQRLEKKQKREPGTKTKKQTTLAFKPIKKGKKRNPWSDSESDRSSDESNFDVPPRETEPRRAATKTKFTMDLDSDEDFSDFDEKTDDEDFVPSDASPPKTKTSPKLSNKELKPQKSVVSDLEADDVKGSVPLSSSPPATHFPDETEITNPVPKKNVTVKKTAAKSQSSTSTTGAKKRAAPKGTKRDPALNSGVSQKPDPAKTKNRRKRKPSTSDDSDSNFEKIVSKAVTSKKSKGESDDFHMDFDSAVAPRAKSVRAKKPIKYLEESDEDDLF

SMILES: O=C1c2c[n+]([O-])c3ccccc3c2C(=O)c2[nH]c3ccccc3c21 [CALOTHRIXIN A]
- Activity (NCI-H460 [1]): Active
- Activity (HCT-116 [2]): Active
- Activity (Calf thymus DNA [3]): 13%
- Activity (NCI-H460 [4]): Active
- Activity (Calf thymus DNA [5]): 12%
- Activity (HCT-116 [6]): Active
- GI50 (HCT-116 [7]): 80 nM
- logP (physchem [8]): 1.32
- GI50 (Jurkat): 70 nM
- Activity (HCT-116 [9]): Active
- GI50 (MCF7): 30 nM
- inhibition [10]: inactive
- GI50 (SiHa): 50 nM
- Activity (NCI-H460 [11]): Active
- Activity (Calf thymus DNA [12]): 10 nm
- Activity (HeLa [13]): Tde
- GI50 (NCI-H460 [14]): 220 nM
- Activity (HCT-116 [15]): Active
- inhibition [16]: Active
- Activity (HCT-116 [17]): Active
- logD (physchem [18]): 1.02
- Activity (HCT-116 [19]): Active
- GI50 (U-251): 80 nM
- Activity (Calf thymus DNA [20]): 13%
- GI50 (HeLa [21]): 80 nM
- GI50 (MDA-MB-231): 40 nM
- GI50 (HCT-116 [22]): 110 nM

SMILES: c1ccc2c(c1)ncc1cc3c(cc12)[nH]c1ccccc13
- GI50 (HEK293): > 4000 nM
- inhibition (HCT-116 [23]): inactive
- GI50 (A549): > 4000 nM
- Activity (HCT-116 [24]): inactive
- logP (physchem [8]): -1.25
- GI50 (Jurkat): 4000 nM
- Activity (Calf thymus DNA [25]): Active
- GI50 (MCF7): > 4000 nM
- Activity (Calf thymus DNA [26]): Active
- GI50 (SiHa): > 4000 nM
- Activity (Calf thymus DNA [27]): 30%
- Activity (HCT-116 [28]): inactive
- inhibition [29]: Active
- GI50 (NCI-H460 [14]): 5500 nM
- inhibition (NCI-H460 [30]): inactive
- inhibition [16]: 100%
- inhibition [31]: 97%
- Activity [32]: Dose-dependent effect
- logD (physchem [18]): -1.55
- IC50 [33]: 23400 nM
- IC90 [33]: 41500 nM
- inhibition [33]: Dose-dependent effect
- Activity (HCT-116 [34]): inactive
- GI50 (U-251): > 4000 nM
- Activity (NCI-H460 [35]): inactive
- GI50 (HeLa [21]): 410 nM
- GI50 (MDA-MB-231): > 4000 nM
- GI50 (HCT-116 [22]): 11500 nM
